Values of other authors, collected in patent US20250152537A1, “COMPOSITIONS AND METHODS FOR THE TREATMENT OF HUMAN IMMUNODEFICIENCY VIRUS” (PROTHIONE LLC, priority 2022, published 2025).

Conditions: not told

SMILES: N[C@@H](CCC(=O)N[C@@H](CS)C(=O)NCC(=O)O)C(=O)O [GSH, glutathione]
- membrane permeability: membrane-impermeable
